We go through 32 compounds from patent publication US10118930B2, “Piperidinylpyrazolopyrimidinones and their use” (BAYER PHARMA AKTIENGESELLSCHAFT, priority 2015, dated 2018).

What is called pIC50 is the negative decadic logarithm of the IC50, by convention in mol/L. A high value points to a low IC50.

pIC50: −log10 of the molar value. Counter-ions that a name gives are not always drawn.

The subject of this test is clot lysis (fibrinolysis) in diluted human citrated plasma, tPA-induced. Description: Plasma-based clot lysis assay (5%). Particulars: human citrated platelet-poor plasma 5%, fibrinogen 3 μM, CaCl2 10 mM, tPA 0.2 nM, 37° C., OD at 405 nm. Format: biochemical. The procedure, abridged: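 Compounds added to 5% platelet-poor citrated human plasma with 3 μM fibrinogen in 20 mM HEPES, 150 mM NaCl, 0.01% Brij, pH 7. Clotting and lysis started with 10 mM CaCl2 and 0.2 nM tPA at 37° C. IC50 derived by comparing time courses with a blank control reaction.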

The compound `O=c1cc(C2CCNCC2)n2ncc(-c3nc(-c4ccc(F)cc4F)no3)c2[nH]1` [Example 158, 3-[3-(2,4-difluorophenyl)-1,2,4-oxadiazol-5-yl]-7-(piperidin-4-yl)pyrazolo[1,5-a]pyrimidin-5(4H)-one hydrochloride] gave a pIC50 of 7.42. For the compound `O=c1cc(C2CCNCC2)n2ncc(-c3nc(-c4ccccc4F)no3)c2[nH]1` [Example 159, 3-[3-(2-fluorophenyl)-1,2,4-oxadiazol-5-yl]-7-(piperidin-4-yl)pyrazolo[1,5-a]pyrimidin-5(4H)-one hydrochloride], the pIC50 was 7.64. As to `COc1ccccc1-c1noc(-c2cnn3c(C4CCNCC4)cc(=O)[nH]c23)n1` [Example 160, 3-[3-(2-methoxyphenyl)-1,2,4-oxadiazol-5-yl]-7-(piperidin-4-yl)pyrazolo[1,5-a]pyrimidin-5(4H)-one hydrochloride], the pIC50 is 7.14.

On to `O=c1cc(C2CCNCC2)n2ncc(-c3cccc(-c4ccc(C(F)(F)F)cc4)c3)c2[nH]1` [Example 162, 7-(piperidin-4-yl)-3-[4′-(trifluoromethyl)biphenyl-3-yl]pyrazolo[1,5-a]pyrimidin-5(4H)-one hydrochloride], for which the pIC50 was 6.85.

`O=c1cc(C2CCNCC2)n2ncc(-c3nc(-c4cccc(Cl)c4)cs3)c2[nH]1` [Example 163, 3-[4-(3-chlorophenyl)-1,3-thiazol-2-yl]-7-(piperidin-4-yl)pyrazolo[1,5-a]pyrimidin-5 (4H)-one hydrochloride]: the pIC50 is 7.40.

`CC(C)(C)c1nnc(-c2cnn3c(C4CCNCC4)cc(=O)[nH]c23)o1` [Example 165, 3-(5-tert-butyl-1,3,4-oxadiazol-2-yl)-7-(piperidin-4-yl)pyrazolo[1,5-a]pyrimidin-5 (4H)-one hydrochloride]: the pIC50 is 7.47. `O=c1cc(C2CCNCC2)n2ncc(-c3nnc(-c4ccc(C(F)(F)F)cc4)o3)c2[nH]1` [Example 166, 7-(piperidin-4-yl)-3-{5-[4-(trifluoromethyl)phenyl]-1,3,4-oxadiazol-2-yl}pyrazolo[1,5-a]pyrimidin-5(4H)-one hydrochloride] had a pIC50 of 8.06. The same measure, in the same setting: for `N#Cc1ccc(-c2nnc(-c3cnn4c(C5CCNCC5)cc(=O)[nH]c34)o2)cc1` [Example 167, 4-{5-[5-oxo-7-(piperidin-4-yl)-4,5-dihydropyrazolo[1,5-a]pyrimidin-3-yl]-1,3,4-oxadiazol-2-yl}benzonitrile hydrochloride] the value was 7.47; for `Cn1cncc1-c1nnc(-c2cnn3c(C4CCNCC4)cc(=O)[nH]c23)o1` [Example 168, 3-[5-(1-methyl-1H-imidazol-5-yl)-1,3,4-oxadiazol-2-yl]-7-(piperidin-4-yl)pyrazolo[1,5-a]pyrimidin-5(4H)-one hydrochloride], 7.48; for `Cc1ccc(-c2nnc(-c3cnn4c(C5CCNCC5)cc(=O)[nH]c34)o2)cc1` [Example 170, 3-[5-(4-methylphenyl)-1,3,4-oxadiazol-2-yl]-7-(piperidin-4-yl)pyrazolo[1,5-a]pyrimidin-5 (4H)-one hydrochloride], 7.47.

`O=c1cc(C2CCNCC2)n2ncc(-c3nnc(-c4ccccc4C(F)(F)F)o3)c2[nH]1` [Example 172, 7-(piperidin-4-yl)-3-{5-[2-(trifluoromethyl)phenyl]-1,3,4-oxadiazol-2-yl}pyrazolo[1,5-a]pyrimidin-5(4H)-one hydrochloride] showed a pIC50 of 7.23. Regarding `COCc1nnc(-c2cnn3c(C4CCNCC4)cc(=O)[nH]c23)o1` [Example 173, 3-[5-(methoxymethyl)-1,3,4-oxadiazol-2-yl]-7-(piperidin-4-yl)pyrazolo[1,5-a]pyrimidin-5(4H)-one hydrochloride], the pIC50 is 7.47. On the same count and under the same terms, then `O=c1cc(C2CCNCC2)n2ncc(-c3nnc(C4CC4)o3)c2[nH]1` [Example 174, 3-(5-cyclopropyl-1,3,4-oxadiazol-2-yl)-7-(piperidin-4-yl)pyrazolo[1,5-a]pyrimidin-5 (4H)-one hydrochloride], with 7.47.

For the compound `O=c1cc(C2CCNCC2)n2ncc(-c3nnc(-c4cccc(C(F)(F)F)c4)o3)c2[nH]1` [Example 175, 7-(piperidin-4-yl)-3-{5-[3-(trifluoromethyl)phenyl]-1,3,4-oxadiazol-2-yl}pyrazolo[1,5-a]pyrimidin-5(4H)-one hydrochloride], the pIC50 is 7.46. Still for that read-out and setting: for `O=c1cc(C2CCNCC2)n2ncc(-c3nnc(C4CCCC4)o3)c2[nH]1` [Example 177, 3-(5-cyclopentyl-1,3,4-oxadiazol-2-yl)-7-(piperidin-4-yl)pyrazolo[1,5-a]pyrimidin-5(4H)-one hydrochloride] the value was 7.40; for `O=c1cc(C2CCNCC2)n2ncc(-c3nnc(-c4ccco4)o3)c2[nH]1` [Example 178, 3-[5-(2-furyl)-1,3,4-oxadiazol-2-yl]-7-(piperidin-4-yl)pyrazolo[1,5-a]pyrimidin-5 (4H)-one hydrochloride], 7.47. Consider `CC(C)(C)c1ccc(-c2nnc(-c3cnn4c(C5CCNCC5)cc(=O)[nH]c34)o2)cc1` [Example 179, 3-[5-(4-tert-butylphenyl)-1,3,4-oxadiazol-2-yl]-7-(piperidin-4-yl)pyrazolo[1,5-a]pyrimidin-5 (4H)-one hydrochloride], for which the pIC50 is 7.43. Compound `O=c1cc(C2CCNCC2)n2ncc(-c3nnc(Cc4ccccc4)o3)c2[nH]1` [Example 180, 3-(5-benzyl-1,3,4-oxadiazol-2-yl)-7-(piperidin-4-yl)pyrazolo[1,5-a]pyrimidin-5(4H)-one hydrochloride] had a pIC50 of 7.46.

Take `O=c1cc(C2CCNCC2)n2ncc(-c3nnc(-c4ccc(Cl)cc4)o3)c2[nH]1` [Example 181, 3-[5-(4-chlorophenyl)-1,3,4-oxadiazol-2-yl]-7-(piperidin-4-yl)pyrazolo[1,5-a]pyrimidin-5(4H)-one hydrochloride]: the pIC50 was 7.55. Take `O=c1cc(C2CCNCC2)n2ncc(-c3nnc(CC4CCCCC4)o3)c2[nH]1` [Example 182, 3-[5-(cyclohexylmethyl)-1,3,4-oxadiazol-2-yl]-7-(piperidin-4-yl)pyrazolo[1,5-a]pyrimidin-5 (4H)-one hydrochloride]: the pIC50 was 7.46. For `O=c1cc(C2CCNCC2)n2ncc(-c3nnc(-c4ccncc4)o3)c2[nH]1` [Example 185, 7-(piperidin-4-yl)-3-[5-(pyridin-4-yl)-1,3,4-oxadiazol-2-yl]pyrazolo[1,5-a]pyrimidin-5 (4H)-one hydrochloride], the pIC50 is 7.42. `O=c1cc(C2CCNCC2)n2ncc(-c3nnc(-c4ccccc4F)o3)c2[nH]1` [Example 186, 3-[5-(2-fluorophenyl)-1,3,4-oxadiazol-2-yl]-7-(piperidin-4-yl)pyrazolo[1,5-a]pyrimidin-5(4H)-one hydrochloride] had a pIC50 of 7.47. As for `Cc1nc(-c2ccccc2)sc1-c1cnn2c(C3CCNCC3)cc(=O)[nH]c12` [Example 187, 3-(4-methyl-2-phenyl-1,3-thiazol-5-yl)-7-(piperidin-4-yl)pyrazolo[1,5-a]pyrimidin-5(4H)-one hydrochloride], the pIC50 was 7.46. As for `O=c1cc(C2CCNCC2)n2ncc(-c3nc(-c4ccc(C(F)(F)F)nc4)no3)c2[nH]1` [Example 188, 7-(piperidin-4-yl)-3-{3-[6-(trifluoromethyl)pyridin-3-yl]-1,2,4-oxadiazol-5-yl}pyrazolo[1,5-a]pyrimidin-5(4H)-one hydrochloride], the pIC50 was 7.46. Turning to `O=c1cc(C2CCNCC2)n2ncc(-c3nc(-c4cnccc4C(F)(F)F)no3)c2[nH]1` [Example 189, 7-(piperidin-4-yl)-3-{3-[4-(trifluoromethyl)pyridin-3-yl]-1,2,4-oxadiazol-5-yl}pyrazolo[1,5-a]pyrimidin-5(4H)-one hydrochloride], the pIC50 was 7.42. Same read-out and setting: for `O=c1cc(C2CCNCC2)n2ncc(-c3nc(-c4cc(F)c(F)cc4F)no3)c2[nH]1` [Example 190, 7-(piperidin-4-yl)-3-[3-(2,4,5-trifluorophenyl)-1,2,4-oxadiazol-5-yl]pyrazolo[1,5-a]pyrimidin-5 (4H)-one hydrochloride] the value was 7.47; for `CS(=O)(=O)Cc1noc(-c2cnn3c(C4CCNCC4)cc(=O)[nH]c23)n1` [Example 191, 3-{3-[(methylsulfonyl)methyl]-1,2,4-oxadiazol-5-yl}-7-(piperidin-4-yl)pyrazolo[1,5-a]pyrimidin-5(4H)-one hydrochloride], 7.47; for `O=c1cc(C2CCNCC2)n2ncc(-c3nc(CCCC(F)(F)F)no3)c2[nH]1` [Example 192, 7-(piperidin-4-yl)-3-[3-(4,4,4-trifluorobutyl)-1,2,4-oxadiazol-5-yl]pyrazolo[1,5-a]pyrimidin-5(4H)-one hydrochloride], 7.47. The compound `O=c1cc(C2CCNCC2)n2ncc(-c3nc(Cc4ccc(F)cc4Cl)no3)c2[nH]1` [Example 195, 3-[3-(2-chloro-4-fluorobenzyl)-1,2,4-oxadiazol-5-yl]-7-(piperidin-4-yl)pyrazolo[1,5-a]pyrimidin-5(4H)-one hydrochloride] showed a pIC50 of 7.46. The same measure, in the same setting: then `Cc1ccccc1Cc1noc(-c2cnn3c(C4CCNCC4)cc(=O)[nH]c23)n1` [Example 198, 3-[3-(2-methylbenzyl)-1,2,4-oxadiazol-5-yl]-7-(piperidin-4-yl)pyrazolo[1,5-a]pyrimidin-5(4H)-one hydrochloride], with 7.47. On to `CCc1noc(-c2cnn3c(C4CCNCC4)cc(=O)[nH]c23)n1` [Example 199, 3-(3-ethyl-1,2,4-oxadiazol-5-yl)-7-(piperidin-4-yl)pyrazolo[1,5-a]pyrimidin-5(4H)-one hydrochloride], for which, for the setting “hydrochloride”, the pIC50 was 7.47.

In turn, `NC(=O)c1noc(-c2cnn3c(C4CCNCC4)cc(=O)[nH]c23)n1` [Example 200, 5-[5-oxo-7-(piperidin-4-yl)-4,5-dihydropyrazolo[1,5-a]pyrimidin-3-yl]-1,2,4-oxadiazole-3-carboxamide hydrochloride] gave a pIC50 of 7.47.
